Eight molecules from ChEMBL document CHEMBL1165863, “Lipophilicity of novel antitumour and analgesic active 8-aryl-2,6,7,8-tetrahydroimidazo[2,1-c][1,2,4]triazine-3,4-dione derivatives determined by reversed-phase HPLC and computational methods” (Eur J Med Chem, 2010) can be followed below.

The term logP denotes a log measure of how a compound divides between an organic and an aqueous phase. A word on the LD50: it is the dose expected to kill half of the subjects tested. Read a low LD50 as a more toxic substance.

Data set [1] is described as follows: Lipophilicity, Log p by HPLC. The format is physicochemical.
Data set [2] has as its system Mus musculus. Nature of the data set: (§1) Toxicity in ip dosed mouse. The class given is organism-based. To be noted: in vivo.
The nature of data set [3]: as §1. The class given is organism-based. To be noted: in vivo.

With `O=c1[nH]nc2n(c1=O)CCN2c1ccc(Cl)c(Cl)c1`, the logP in data set [1] was 2.63.
With `COc1ccc(N2CCn3c2n[nH]c(=O)c3=O)cc1`, the logP in data set [1] was found to be 1.21. Also, the “log(1/LD50)” value in data set [2] was -3.18.
The like results for `O=c1[nH]nc2n(c1=O)CCN2c1ccccc1` were, in that order, 1.31 and -3.15.
`Cc1ccccc1N1CCn2c1n[nH]c(=O)c2=O`: in data set [1], the logP was determined as 1.16.
In turn, `O=c1[nH]nc2n(c1=O)CCN2c1cccc(Cl)c1` registered a logP in data set [1] of 2. In addition, the LD50 in data set [3] came to 2000 mg/kg. Further, the “log(1/LD50)” value in data set [2] is on record as -3.3.
As to `COc1ccccc1N1CCn2c1n[nH]c(=O)c2=O`, the logP in data set [1] was found to be 0.97. Further, in data set [2], the “log(1/LD50)” value is recorded as -3.04.
In data set [1], `O=c1[nH]nc2n(c1=O)CCN2c1ccc(Cl)cc1` returned a logP of 1.99. Besides, in data set [2], the LD worked out at 2000 mg/kg and the “log(1/LD50)” value is -3.3.
In turn, `Cc1ccc(N2CCn3c2n[nH]c(=O)c3=O)cc1` yielded a lipophilicity (logP) in data set [1] of 1.84. Besides, in data set [2], the “log(1/LD50)” value was -3.25.
